Reference: patent US12532887B2, “Method for controlling pests of potato plants” (BASF SE, priority 2018, dated 2026)
Like-named read-outs stand apart in the source and are kept apart here.

Columns and labels:
[1] = tested on: Colorado Potato Beetle (CPB, Leptinotarsa decemlineata); test: Colorado Potato Beetle dipping bioassay (foliar method) with potato plants; type: in vivo; conditions: for Activity against CPB by potato plant dipping assay / Feeding damage protection of potato plants, Feeding Protection (%) / Feeding damage protection of potato plants (%), Control corrected: 100 ppm; for Feeding damage protection of potato plants, Feeding Protection (%) / Feeding damage protection of potato plants (%), Control corrected / mortality at 100 ppm: leaf dipping, 2nd instar CPB, 5 days after infest; for mortality at 100 ppm: Leptinotarsa decemlineata, foliar, 120 h
Source text: 2. Method: Colorado Potato Beetle (CPB, Leptinotarsa decemlineata) Dipping Bioassay (Foliar Method) with Potato Plants Serial dilutions of TGAI are made in 50:50 (acetone: H2O) 0.01% kinetic solvent solution. Potato plant true leaves are snipped off the plant, treated by dipping method in a bowl with acetone-resistant plastic liner and inserted into a glass flask filled with water of the stem part to prevent dehydration of the leaves. Leaves are air-dried in hood, and transferred to petri dishes preset with a filter paper soaked with 2.5 ml water. The leaves are infested with five 2nd instar CPB per dish. 6 replicates/treatment and one rate (100 ppm)/test analog. Petri dishes are held for 5 days after infest at a […], 50% RH and 14/10 light/dark cycle in walk-in chamber. Both plant feeding damage and mortality of CPB were evaluated.

[2] = tested on: Colorado Potato beetle, Leptinotarsa decimlineata; test: Field trial, foliar application on potato, feeding damage assessment; type: in vivo
Source text: 1. Potato-Colorado Potato Beetle, Leptinotarsa decimlineata:
Foliar application: Field trials were set up. The plots were laid out in 5-meter rows with 4 replications. Applications of Compound I-R-1 was done. Feeding damage assessments were taken at 6, 15 and 20 days after application for the entire plot.

[3] = control corrected, read-out: Mortality of CPB (%), Control corrected
[4] = read-out: Mortality of CPB, Mortality (%)

Row | Compound | Activity against CPB by potato plant dipping assay [1] | Feeding damage protection of potato plants, Feeding Protection (%) [1] [%] | Feeding damage protection of potato plants (%), Control corrected ([1]; control corrected) [%] | mortality at 100 ppm [1, 3] [%] | mortality at 100 ppm [1, 4] [%] | Efficacy against L. decimlineata as foliar application in terms of reduction in feeding damage ([2]; foliar application (Table 2)) | Feeding damage (%) A06 ([2]; foliar treatment, 60 g ai/ha, 6 days after application, entire plot) [%] | Feeding damage (%) A15 ([2]; foliar treatment, 60 g ai/ha, 15 days after application, entire plot) [%] | Feeding damage (%) A20 ([2]; foliar treatment, 60 g ai/ha, 20 days after application, entire plot) [%]
1 | C[n+]1c([O-])c(-c2ccccc2)c(=O)n2c1OCC2c1cnc(Cl)s1 (stereo not drawn) [Compound C-19, reference compound] | inactive | 5.00 | 0.00 | 3.33 | 3.33 |  |  |  | 
2 | C[n+]1c([O-])c(-c2ccccc2)c(=O)n2c1SC[C@@H]2c1cnc(Cl)s1 [Compound (I-R-1)] | active | 90.83 | 90.40 | 80 | 80 | good efficacy | 6.5 | 5.0 | 8.0
3 | C[n+]1c([O-])c(-c2ccccc2)c(=O)n2c1CCC2c1cnc(Cl)s1 (stereo not drawn) [Compound C-6, reference compound] | inactive | 11.67 | 7.00 | 0 | 0 |  |  |  | 
4 | C[n+]1c([O-])c(-c2ccccc2)c(=O)n2c1SCC2c1cnc(Cl)s1 (racemic) [Compound (I)] | active | 89.17 | 88.60 | 56.7 | 56.7 |  |  |  | 
